Results on 15 molecules are retold here after PubChem BioAssay (NCI).

Test systems include CAKI-1 renal; HCC-2998 colon; HT29 colon; K-562 leukemia; MALME-3M melanoma; SK-MEL-5 melanoma; SNB-19 CNS; UACC-257 melanoma; LOX IMVI melanoma; SR leukemia.
Assay in all cases: NCI anticancer screen, dose series, 48 h

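Tested at 5 concentrations; 48 h exposure; 96-well plates; endpoints linearly interpolated, else capped at highest concentration. GI50: concentration for 50% inhibition of growth. TGI denotes the concentration required for complete inhibition of growth.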 Some results are limits rather than exact numbers.

For the molecule `O=C1c2cccc3cccc(c23)C(=O)N1CCCNCCCCNCCCNCCCN1C(=O)c2cccc3cccc(c23)C1=O`, the TGI came out at 17.3 µM in the assay on CAKI-1 renal; 1.86 µM in the assay with HCC-2998 colon; 1.15 µM in the assay with HT29 colon; 3.79 µM in the assay with K-562 leukemia; 1.25 µM with MALME-3M melanoma; 8.35 µM in the assay on SK-MEL-5 melanoma. Further, the TGI in the assay with SNB-19 CNS was 1.58 µM; in the assay on UACC-257 melanoma, 3.06 µM.
For the molecule `COc1cc(C2c3cc4c(cc3[C@@H](Nc3ccccc3)C3COC(=O)[C@H]23)OCO4)cc(OC)c1O` (some centres not stated), the TGI amounted to 1.68 µM in the assay on CAKI-1 renal; 3.35 µM in the assay on HCC-2998 colon; 3.64 µM in the assay on HT29 colon; 9.32 µM in the assay on K-562 leukemia; 3.38 µM in the assay with LOX IMVI melanoma; 8.65 µM in the assay with MALME-3M melanoma. Also, the TGI was 2.66 µM in the assay on SK-MEL-5 melanoma, 11.3 µM in the assay on SNB-19 CNS and 4.27 µM in the assay on UACC-257 melanoma.
As to `O=C(NCCCl)O/N=C/c1cccnc1`, the TGI in the assay with CAKI-1 renal, in the assay with HCC-2998 colon, with HT29 colon, in the assay on K-562 leukemia, with LOX IMVI melanoma and in the assay with MALME-3M melanoma was more than 100 µM in each case. The TGI in the assay with SK-MEL-5 melanoma, in the assay with SNB-19 CNS and in the assay on UACC-257 melanoma was more than 100 µM each time. Moreover, in the assay on MALME-3M melanoma, the GI50 is 89.5 µM.
As for `CC12c3c4ccc(C=O)c3Oc3ccc(C=O)c(c31)Oc1ccc(C=O)c(c12)O4`, the TGI with CAKI-1 renal, in the assay with HT29 colon, in the assay on K-562 leukemia, with LOX IMVI melanoma, with MALME-3M melanoma and in the assay on SNB-19 CNS was more than 25 µM each time. Besides, the TGI with SR leukemia and in the assay with UACC-257 melanoma was more than 25 µM each time.
Take `COC(=O)c1ccccc1CC1Cc2cccc(C)c2C1=O` (configuration not stated): the TGI was more than 100 µM in the assay on CAKI-1 renal; more than 100 µM in the assay on HCC-2998 colon; 58.3 µM in the assay on HT29 colon; 68.4 µM in the assay with K-562 leukemia; 39.6 µM in the assay with LOX IMVI melanoma; 48.3 µM in the assay on MALME-3M melanoma. The TGI in the assay with SK-MEL-5 melanoma was 37.5 µM; in the assay on SNB-19 CNS it was more than 100 µM; with UACC-257 melanoma, 73.3 µM.
For the molecule `CCCCOCCOC1=C(Cl)C(=O)c2c(O)ccc(O)c2C1=O`, the TGI in the assay with CAKI-1 renal came out at 1.36 µM; in the assay with HCC-2998 colon it was 6.01 µM; with HT29 colon, 2.16 µM; in the assay on LOX IMVI melanoma, 0.946 µM; in the assay with MALME-3M melanoma, 0.628 µM; in the assay on SK-MEL-5 melanoma, 1.98 µM. Further, the TGI with SNB-19 CNS was 1.82 µM; in the assay on UACC-257 melanoma, 1.15 µM.
On to `O=C(c1ccccc1)c1ccc2c(c1)NC(=O)c1ccccc1SSc1ccccc1C(=O)N2`, for which the TGI in the assay with CAKI-1 renal, in the assay with HT29 colon, in the assay with K-562 leukemia, with LOX IMVI melanoma, with MALME-3M melanoma and in the assay with SK-MEL-5 melanoma was more than 100 µM each time. The TGI in the assay on SNB-19 CNS, in the assay on SR leukemia and in the assay with UACC-257 melanoma was more than 100 µM in each case.
`C=C(C)CNCCN`: the TGI in the assay on CAKI-1 renal, in the assay on HT29 colon, in the assay on K-562 leukemia, with LOX IMVI melanoma, with MALME-3M melanoma and in the assay with SK-MEL-5 melanoma was more than 100 µM in each case. The TGI with SNB-19 CNS, with SR leukemia and in the assay on UACC-257 melanoma was more than 100 µM throughout.
For the molecule `CCOC(=O)CNC(=O)NC12CC3CC(CC(C3)C1)C2`, the TGI is more than 487 µM in the assay with CAKI-1 renal; 319 µM with HCC-2998 colon; more than 550 µM in the assay with HT29 colon; more than 550 µM in the assay with K-562 leukemia; more than 550 µM in the assay with LOX IMVI melanoma; 420 µM in the assay with MALME-3M melanoma. In addition, the TGI in the assay with SK-MEL-5 melanoma came to 330 µM; in the assay on SNB-19 CNS, 548 µM; with UACC-257 melanoma it was 477 µM.
For `CC(C)(C)c1ccc2c(c1)C#Cc1cc3c(cc1OCCCO2)C#Cc1cc(C(C)(C)C)ccc1OCCCO3`, the TGI in the assay on CAKI-1 renal, in the assay on HCC-2998 colon, in the assay on HT29 colon, in the assay on K-562 leukemia, in the assay on LOX IMVI melanoma and in the assay with MALME-3M melanoma was more than 100 µM throughout. Moreover, the TGI in the assay on SK-MEL-5 melanoma, with SNB-19 CNS and in the assay on UACC-257 melanoma was more than 100 µM throughout.
Turning to `COc1ccc2oc(=N)c(C(=O)Nc3ccccc3)cc2c1`, the TGI in the assay on CAKI-1 renal is more than 100 µM; in the assay with HT29 colon, more than 100 µM; with K-562 leukemia, 4.19 µM; with LOX IMVI melanoma, more than 100 µM; with MALME-3M melanoma, 53.2 µM; with SK-MEL-5 melanoma it was more than 100 µM. Moreover, the TGI in the assay on SNB-19 CNS, in the assay on SR leukemia and in the assay on UACC-257 melanoma was more than 100 µM in each case.
On to `O[C@H]1[C@H](O)[C@@H](O)CN2CC[C@H](O)[C@H]12`, for which the TGI with CAKI-1 renal, in the assay on HCC-2998 colon, in the assay on HT29 colon, in the assay with K-562 leukemia, in the assay with LOX IMVI melanoma and with MALME-3M melanoma was more than 100 µM each time. The TGI with SK-MEL-5 melanoma, with SNB-19 CNS and in the assay on UACC-257 melanoma was more than 100 µM in each case.
As for `CCOC(=O)/C=C1/C(CCCOCc2ccccc2)C2CCCC23CC2(CCN13)OCCO2` (configuration not stated), the TGI was more than 100 µM with HCC-2998 colon; 45.4 µM in the assay on HT29 colon; 63.7 µM in the assay with K-562 leukemia; 37.9 µM with LOX IMVI melanoma; 33.9 µM in the assay with MALME-3M melanoma; 34.8 µM in the assay with SK-MEL-5 melanoma. For the same molecule, the values for the TGI in the assay on SNB-19 CNS and with UACC-257 melanoma were more than 100 µM and 53.9 µM, respectively.
Turning to `Cc1ccsc1/C=N/Nc1cnccn1`, the TGI with CAKI-1 renal, with HCC-2998 colon, in the assay on HT29 colon, with K-562 leukemia, in the assay with LOX IMVI melanoma and with MALME-3M melanoma was more than 100 µM in each case. Also, the TGI in the assay on SK-MEL-5 melanoma, with SNB-19 CNS and with UACC-257 melanoma was more than 100 µM throughout.
For `N#Cc1sc2c(c1OC(=O)c1ccc(C(F)(F)F)cc1)c(=O)n(-c1ccccc1)c(=S)n2-c1ccccc1`, the TGI was 90.9 µM in the assay with CAKI-1 renal; more than 100 µM in the assay on HCC-2998 colon; 82.5 µM with HT29 colon; more than 100 µM in the assay with K-562 leukemia; 59.9 µM in the assay on LOX IMVI melanoma; 84.4 µM with MALME-3M melanoma. Moreover, the TGI with SK-MEL-5 melanoma was 62.2 µM; in the assay on SNB-19 CNS, more than 100 µM; in the assay on UACC-257 melanoma it was more than 100 µM.
